Experimental data: US20230124634A1, “ANTIBACTERIAL COMPOSITION” (CONOPCO, INC., D/B/A UNILEVER, priority 2020, published 2023)

Columns and labels:
[1] = test system: Staphylococcus aureus ATCC 6538; test: In-Vitro Time-Kill assay (EN 1040:2005 with minor modifications); format: cell-based
Description: Inoculums of S. aureus at about 10^7.5 colony forming units per milliliter (CFU/mL) were prepared from 24-hour cultures on agar plates. […]
The log10 of (number of surviving cells (CFU/mL)/initial number of cells) is plotted versus the exposure time. […] The exposure time is limited to only 60 s, as this time frame is a realistic estimate of the amount of time devoted to hand washing.
Surfactant Solution Preparation—Solution preparation consisted of mixing the surfactant solution with an equal volume of the appropriate buffer to form a test solution containing 50% of the original formulation concentration. Sodium carbonate/bicarbonates buffers (0.1 M) were prepared for use at pH 10 and 7, respectively, while sodium acetate buffer was used at pH 5.
The bacteria were stored at −80° C. and fresh working cultures were prepared by streaking on Tryptic Soy Agar plates for 24 hours at 37° C. and then preparing second subcultures in the same way before each experiment.
Following this procedure, stationary-phase bacterial cultures at approximately […] colony forming units (CFU) per mL (GF-U) were treated with the surfactant solution (as described above) at 25° C., rather than at 20° C. as specified in the Standard. In constructing the test sample, 8 parts by weight of the surfactant solution was combined with 1 part by weight of the culture and 1 part by weight of water. After 10, 20, 30, and 60 seconds of exposure, the samples were neutralized to arrest the antibacterial activity of the surfactant solution. […] The test solutions were serially diluted, plated on solid medium, and incubated for 24 hours. The surviving cells were then enumerated. Bactericidal activity was defined as the log10 reduction in CFU relative to the initial bacterial concentration at 0 seconds. Cultures not exposed to surfactant solution acted as the no-treatment controls. The log10 reduction was calculated using the formula:
log10 reduction=log10(CFU in no-treatment control)−log10(CFU in treated sample)

[2] = cited from earlier work
[3] = Silver ion solubility derived from solubility product (Ksp) in water at 25° C.; settings: calculated from Ksp
Description: More particularly, silver ion solubility [Ag+], a value given in mol/L may be calculated using the formula:

[4] = pH 5; cited from earlier work
[5] = throughout the pH interval claimed

O=[N+]([O-])[O-].[Na+] [NaNO3, sodium nitrate]
NaNO3 necessary to recover a one unit log10 reduction in S. aureus ([1]; in the presence of 0.03 M NaCl, SLES/Ag^+, pH 7.0): ≥ 0.3 M

CCCCCCCCCCCCOS(=O)(=O)[O-].[Na+] [SDS, sodium dodecyl sulfate]
synergy with silver ion ([1]; pH 5): strong synergy with silver ion
intrinsic biocidal properties ([1]; pH 5, on its own): quite biocidal on its own
inherent biocidal action [1, 5]: limited inherent biocidal action
synergy with silver ion [1, 5]: strong synergy with silver ion

O=C([O-])c1ccccc1.[Ag+] [Silver benzoate]
Ksp (mol/L in water at 25° C.) [2]: 2.5e-05 mol/L

[Br][Ag] [Silver bromide]
Ksp (mol/L in water at 25° C.) [2]: 5.3e-13 mol/L

[Cl][Ag] [Silver chloride]
Ksp (mol/L in water at 25° C.) [2]: 1.8e-10 mol/L
Silver Ion Solubility [Ag+] (mol/L in water at 25° C.) [3]: 1.3e-05 mol/L

O=C([O-])CC(O)(CC(=O)[O-])C(=O)[O-].[Ag+].[Ag+].[Ag+] [Silver citrate]
Ksp (mol/L in water at 25° C.) [2]: 2.5e-16 mol/L

O=S(=O)([O-])[O-].[Ag+].[Ag+] [Silver sulfate]
Ksp (mol/L in water at 25° C.) [2]: 1.4e-05 mol/L

O=C(O)c1ccccc1 [benzoic acid]
percentage of organic acid preservative remaining undissociated (and active) [4]: 13%

[Ag+] [silver ion]
minimum level of silver ion necessary to see enhanced biocidal action ([1]; in the presence of 10% SLES and 0.5 M NaNO3, pH 7 and 25° C.): ≥ 0.03 ppm

C/C=C/C=C/C(=O)O [sorbic acid]
percentage of organic acid preservative remaining undissociated (and active) [4]: 37%

Sodium methyl cocoyl taurate [reference compound]
synergy with silver ion ([1]; pH 5): nor does it enhance the biocidal action of silver ion
intrinsic biocidal properties ([1]; pH 5, on its own): does not have intrinsic biocidal properties
biocidal, inherently or in combination with silver ion ([1]; pH 7): ineffective

octyl phenol ethoxylate [Triton X-100, reference compound]
biocidal, inherently or in combination with silver ion ([1]; pH 5, 10-60 second time scale): not biocidal
biocidal, inherently or in combination with silver ion ([1]; pH 7): ineffective

sodium cocoyl glutamate [reference compound]
biocidal, inherently or in combination with silver ion ([1]; pH 7): ineffective

sodium cocoyl glycinate [reference compound]
biocidal, inherently or in combination with silver ion ([1]; pH 7): ineffective

sodium lauroamphoacetate [reference compound]
biocidal, inherently or in combination with silver ion ([1]; pH 7): ineffective

sodium lauryl ether sulfate [SLES]
synergy with silver ion ([1]; pH 5): strong synergy with silver ion
log10 reduction ([1]; pH 5, on its own): about 2 log10
log10 unit reduction ([1]; pH 7, SLES at 1% (top-half of Table 5)): ≤ 1 log10
log10 unit reduction ([1]; pH 7, SLES at 10% (second half of Table 5)): ≤ 1 log10

sodium lauryl ether sulfate with (on average) 1 ethoxy group [SLES-1 EO]
log10 reduction ([1]; pH range of 7-10, in the presence of silver ion): about 4 log10
log10 reduction ([1]; pH range of 7-10, without silver): about 0.5 log10
inherent biocidal action [1, 5]: limited inherent biocidal action
synergy with silver ion [1, 5]: strong synergy with silver ion

sodium lauryl ether sulfate with (on average) 3 ethoxy groups [SLES-3EO]
inherent biocidal action [1, 5]: limited inherent biocidal action
synergy with silver ion [1, 5]: strong synergy with silver ion
